Test results as given in ChEMBL document CHEMBL3580594, “Synthesis and biological evaluation of 4-substituted fluoronucleoside analogs for the treatment of hepatitis B virus infection” (J Med Chem, 2015).

Tests used:
Rattus norvegicus = assay: In vivo drug metabolism in rat urine sample assessed as 1-((2R,3S,4R,5R)-5-azido-3-fluoro-4-hydroxy-5-(hydroxymethyl)tetrahydrofuran-2-yl)-4-(2-hydroxycyclopropylamino)pyrimidin-2(1H)-one formation by LC-MS/MS analysis; format: ADME, organism-based
Mus musculus [1] = assay: Toxicity in KM mouse assessed as peripheral WBC number in blood per liter at 20 mg/kg, po single dose after 48 hrs (reference value: 11.10 x 2.69/L x 10^-9 cells); format: organism-based; conditions: in vivo
Mus musculus [2] = assay: Toxicity in KM mouse assessed as micronucleus frequency in bone marrow polychromatic erythrocyte at 80 mg/kg, po single dose after 48 hrs (reference value: 2.20 +/- 0.84 %); format: organism-based; conditions: in vivo

For `[N-]=[N+]=N[C@]1(CO)O[C@@H](n2ccc(NC3CC3)nc2=O)[C@@H](F)[C@@H]1O`, the Drug metabolism (Rattus norvegicus) was “metabolite_detected”, the Activity (Mus musculus [1]) was 8.84 ×10⁹ /L and the Activity (Mus musculus [2]) was 1.8%.
